Experimental data reported in article PMC11167047 (Cell Death Discovery, 2024).

Tests used:
Test in all cases: kinome screen (33PanQinase)
Format in all cases: biochemical
[1] = biological target: T1, CDK20/CycT1 (Homo sapiens, UniProt Q8IZL9)
T1 construct: purchased Reaction Biology Europe GmbH (formerly ProQinase)
Experimental: (§1) The Kinome Screening was performed by Reaction Biology Europe GmbH (http://reactionbiology.com; Freiburg i. Br., Germany).

[2] = biological target: T2, TTK (Homo sapiens, UniProt P33981)
T2 construct: purchased Reaction Biology Europe GmbH (formerly ProQinase)
T2 sequence (P33981 1-857): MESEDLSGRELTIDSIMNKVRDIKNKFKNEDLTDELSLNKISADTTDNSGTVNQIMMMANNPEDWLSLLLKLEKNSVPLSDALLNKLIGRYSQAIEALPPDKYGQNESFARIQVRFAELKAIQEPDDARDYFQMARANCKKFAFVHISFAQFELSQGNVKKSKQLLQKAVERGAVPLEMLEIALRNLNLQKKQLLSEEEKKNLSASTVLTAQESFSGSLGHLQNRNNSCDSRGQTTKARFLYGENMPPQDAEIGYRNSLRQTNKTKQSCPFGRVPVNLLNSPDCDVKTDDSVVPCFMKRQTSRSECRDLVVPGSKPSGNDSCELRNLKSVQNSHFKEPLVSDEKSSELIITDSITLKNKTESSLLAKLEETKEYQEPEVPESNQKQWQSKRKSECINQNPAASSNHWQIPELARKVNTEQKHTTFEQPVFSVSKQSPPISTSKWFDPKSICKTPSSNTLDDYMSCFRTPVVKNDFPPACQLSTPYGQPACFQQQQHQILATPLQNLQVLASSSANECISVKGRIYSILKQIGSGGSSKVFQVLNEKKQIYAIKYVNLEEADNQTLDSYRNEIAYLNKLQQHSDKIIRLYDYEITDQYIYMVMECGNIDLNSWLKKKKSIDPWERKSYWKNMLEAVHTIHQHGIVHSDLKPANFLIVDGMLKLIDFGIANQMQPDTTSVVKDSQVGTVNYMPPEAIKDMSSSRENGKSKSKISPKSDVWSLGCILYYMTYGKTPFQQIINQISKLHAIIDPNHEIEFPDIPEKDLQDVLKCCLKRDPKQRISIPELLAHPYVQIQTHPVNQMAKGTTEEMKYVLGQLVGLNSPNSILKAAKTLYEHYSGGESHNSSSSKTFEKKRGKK
Experimental: as §1

[3] = biological target: T3, MARK1 (Homo sapiens, UniProt Q9P0L2)
T3 construct: purchased Reaction Biology Europe GmbH (formerly ProQinase)
Experimental: as §1

[4] = biological target: T4, WNK1 (Homo sapiens, UniProt Q9H4A3)
T4 construct: purchased Reaction Biology Europe GmbH (formerly ProQinase)
Experimental: as §1

[5] = biological target: T5, PAK6 (Homo sapiens, UniProt Q9NQU5)
T5 construct: purchased Reaction Biology Europe GmbH (formerly ProQinase)
Experimental: as §1

[6] = biological target: T6, PDGFRα (Homo sapiens, UniProt P16234)
T6 construct: purchased Reaction Biology Europe GmbH (formerly ProQinase)
Experimental: as §1

[7] = biological target: T7, PKMzeta (Homo sapiens, UniProt Q05513)
T7 construct: PKMzeta; purchased Reaction Biology Europe GmbH (formerly ProQinase)
T7 sequence (Q05513 184-592 limits assumed): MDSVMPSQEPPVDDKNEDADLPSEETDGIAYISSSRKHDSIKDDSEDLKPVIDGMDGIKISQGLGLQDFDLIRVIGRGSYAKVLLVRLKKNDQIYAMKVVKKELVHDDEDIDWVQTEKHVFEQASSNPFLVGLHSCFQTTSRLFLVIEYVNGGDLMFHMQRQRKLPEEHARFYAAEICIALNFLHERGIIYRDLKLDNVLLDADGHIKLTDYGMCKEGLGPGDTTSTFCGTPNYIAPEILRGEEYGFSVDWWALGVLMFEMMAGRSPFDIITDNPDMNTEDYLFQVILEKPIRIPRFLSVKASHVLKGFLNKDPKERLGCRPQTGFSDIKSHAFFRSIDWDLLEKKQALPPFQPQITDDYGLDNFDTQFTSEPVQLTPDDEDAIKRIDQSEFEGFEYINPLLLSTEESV
Experimental: as §1

[8] = biological target: T8, TRKA (Homo sapiens, UniProt P04629)
T8 construct: purchased Reaction Biology Europe GmbH (formerly ProQinase)
Experimental: as §1

[9] = biological target: T9, PRK1 (Homo sapiens, UniProt Q16512)
T9 construct: purchased Reaction Biology Europe GmbH (formerly ProQinase)
Experimental: as §1

[10] = biological target: T10, CAMKK1 (Homo sapiens, UniProt Q8N5S9)
T10 construct: purchased Reaction Biology Europe GmbH (formerly ProQinase)
Experimental: as §1

[11] = biological target: T11, FGFR1 (Homo sapiens, UniProt P11362)
T11 construct: purchased Reaction Biology Europe GmbH (formerly ProQinase)
Experimental: as §1

[12] = biological target: T12, CDK5/p25NCK (Homo sapiens, UniProt Q00535)
T12 construct: purchased Reaction Biology Europe GmbH (formerly ProQinase)
Experimental: as §1

[13] = biological target: T13, MAP3K10 (Homo sapiens, UniProt Q02779)
T13 construct: purchased Reaction Biology Europe GmbH (formerly ProQinase)
Experimental: as §1

[14] = biological target: T14, TEC (Homo sapiens, UniProt P42680)
T14 construct: purchased Reaction Biology Europe GmbH (formerly ProQinase)
T14 sequence (P42680 1-631): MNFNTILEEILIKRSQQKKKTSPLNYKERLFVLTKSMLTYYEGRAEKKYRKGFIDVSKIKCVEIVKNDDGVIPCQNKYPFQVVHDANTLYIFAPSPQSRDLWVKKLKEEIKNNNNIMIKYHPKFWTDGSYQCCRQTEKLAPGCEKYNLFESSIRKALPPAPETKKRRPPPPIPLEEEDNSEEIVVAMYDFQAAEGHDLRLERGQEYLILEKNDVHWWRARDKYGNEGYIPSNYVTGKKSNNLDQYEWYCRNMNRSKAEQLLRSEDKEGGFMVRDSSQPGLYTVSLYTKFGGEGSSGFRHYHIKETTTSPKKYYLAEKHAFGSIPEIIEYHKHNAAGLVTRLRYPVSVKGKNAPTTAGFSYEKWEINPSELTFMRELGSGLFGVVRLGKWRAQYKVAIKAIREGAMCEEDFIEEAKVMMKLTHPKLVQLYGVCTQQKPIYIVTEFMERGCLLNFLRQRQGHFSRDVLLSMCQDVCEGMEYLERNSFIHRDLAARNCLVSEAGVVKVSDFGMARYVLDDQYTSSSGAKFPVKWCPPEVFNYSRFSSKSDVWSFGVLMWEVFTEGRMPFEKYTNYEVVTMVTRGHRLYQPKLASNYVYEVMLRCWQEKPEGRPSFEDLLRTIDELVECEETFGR
Experimental: as §1

T8 sequence (P04629 33-796): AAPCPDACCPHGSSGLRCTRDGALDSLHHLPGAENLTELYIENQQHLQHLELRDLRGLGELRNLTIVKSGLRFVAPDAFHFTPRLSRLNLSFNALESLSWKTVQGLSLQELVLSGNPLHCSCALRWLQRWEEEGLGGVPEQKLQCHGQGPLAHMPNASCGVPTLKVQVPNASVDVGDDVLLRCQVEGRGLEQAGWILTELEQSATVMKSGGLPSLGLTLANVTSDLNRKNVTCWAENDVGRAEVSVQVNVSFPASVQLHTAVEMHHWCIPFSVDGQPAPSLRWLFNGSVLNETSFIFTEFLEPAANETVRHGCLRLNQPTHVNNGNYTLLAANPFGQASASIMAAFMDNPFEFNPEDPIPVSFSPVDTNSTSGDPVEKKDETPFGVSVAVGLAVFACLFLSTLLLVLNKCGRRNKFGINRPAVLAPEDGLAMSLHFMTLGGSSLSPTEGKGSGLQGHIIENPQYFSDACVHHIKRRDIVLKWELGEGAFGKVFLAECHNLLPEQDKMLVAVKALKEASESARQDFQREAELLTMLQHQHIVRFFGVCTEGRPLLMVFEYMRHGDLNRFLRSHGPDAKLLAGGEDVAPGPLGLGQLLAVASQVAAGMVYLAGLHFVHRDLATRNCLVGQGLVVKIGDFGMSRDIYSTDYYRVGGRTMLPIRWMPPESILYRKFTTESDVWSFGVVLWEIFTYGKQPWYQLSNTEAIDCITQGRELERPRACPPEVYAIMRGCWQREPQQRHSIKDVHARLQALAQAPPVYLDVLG
T5 sequence (Q9NQU5 whole entry): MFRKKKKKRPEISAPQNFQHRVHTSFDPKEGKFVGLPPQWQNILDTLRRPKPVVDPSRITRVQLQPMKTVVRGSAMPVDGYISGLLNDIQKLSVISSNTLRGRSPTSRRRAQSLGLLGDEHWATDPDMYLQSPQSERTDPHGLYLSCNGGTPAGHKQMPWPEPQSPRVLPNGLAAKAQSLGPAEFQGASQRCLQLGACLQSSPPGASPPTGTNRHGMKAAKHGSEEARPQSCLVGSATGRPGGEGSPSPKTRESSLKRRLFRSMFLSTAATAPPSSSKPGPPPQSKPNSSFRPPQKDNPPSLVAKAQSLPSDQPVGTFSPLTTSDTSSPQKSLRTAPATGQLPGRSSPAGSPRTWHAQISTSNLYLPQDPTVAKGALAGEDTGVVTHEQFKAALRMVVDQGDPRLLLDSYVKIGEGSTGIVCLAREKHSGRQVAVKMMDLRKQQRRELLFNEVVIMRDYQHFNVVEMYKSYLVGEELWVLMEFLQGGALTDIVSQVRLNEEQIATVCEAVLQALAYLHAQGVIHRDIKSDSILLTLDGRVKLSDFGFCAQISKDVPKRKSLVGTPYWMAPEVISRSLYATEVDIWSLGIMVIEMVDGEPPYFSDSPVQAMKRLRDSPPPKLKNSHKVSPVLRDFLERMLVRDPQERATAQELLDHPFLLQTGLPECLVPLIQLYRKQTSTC
T12 sequence (Q00535 whole entry): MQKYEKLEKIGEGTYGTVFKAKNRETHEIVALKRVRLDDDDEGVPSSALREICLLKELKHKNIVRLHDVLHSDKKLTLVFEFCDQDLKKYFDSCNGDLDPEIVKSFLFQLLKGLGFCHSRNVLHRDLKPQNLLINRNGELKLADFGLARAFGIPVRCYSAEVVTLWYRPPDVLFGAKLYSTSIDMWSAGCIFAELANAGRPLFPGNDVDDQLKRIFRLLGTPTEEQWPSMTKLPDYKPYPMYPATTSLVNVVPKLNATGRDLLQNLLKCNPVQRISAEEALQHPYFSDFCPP
T12 sequence (Q15078 99-307 partner limits assumed): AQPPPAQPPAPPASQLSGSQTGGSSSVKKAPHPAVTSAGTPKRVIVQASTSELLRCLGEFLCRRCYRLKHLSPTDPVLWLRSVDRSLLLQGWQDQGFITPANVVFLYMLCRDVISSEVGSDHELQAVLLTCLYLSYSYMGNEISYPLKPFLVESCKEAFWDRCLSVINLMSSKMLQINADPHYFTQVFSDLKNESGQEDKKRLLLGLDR
T13 sequence (Q02779 whole entry): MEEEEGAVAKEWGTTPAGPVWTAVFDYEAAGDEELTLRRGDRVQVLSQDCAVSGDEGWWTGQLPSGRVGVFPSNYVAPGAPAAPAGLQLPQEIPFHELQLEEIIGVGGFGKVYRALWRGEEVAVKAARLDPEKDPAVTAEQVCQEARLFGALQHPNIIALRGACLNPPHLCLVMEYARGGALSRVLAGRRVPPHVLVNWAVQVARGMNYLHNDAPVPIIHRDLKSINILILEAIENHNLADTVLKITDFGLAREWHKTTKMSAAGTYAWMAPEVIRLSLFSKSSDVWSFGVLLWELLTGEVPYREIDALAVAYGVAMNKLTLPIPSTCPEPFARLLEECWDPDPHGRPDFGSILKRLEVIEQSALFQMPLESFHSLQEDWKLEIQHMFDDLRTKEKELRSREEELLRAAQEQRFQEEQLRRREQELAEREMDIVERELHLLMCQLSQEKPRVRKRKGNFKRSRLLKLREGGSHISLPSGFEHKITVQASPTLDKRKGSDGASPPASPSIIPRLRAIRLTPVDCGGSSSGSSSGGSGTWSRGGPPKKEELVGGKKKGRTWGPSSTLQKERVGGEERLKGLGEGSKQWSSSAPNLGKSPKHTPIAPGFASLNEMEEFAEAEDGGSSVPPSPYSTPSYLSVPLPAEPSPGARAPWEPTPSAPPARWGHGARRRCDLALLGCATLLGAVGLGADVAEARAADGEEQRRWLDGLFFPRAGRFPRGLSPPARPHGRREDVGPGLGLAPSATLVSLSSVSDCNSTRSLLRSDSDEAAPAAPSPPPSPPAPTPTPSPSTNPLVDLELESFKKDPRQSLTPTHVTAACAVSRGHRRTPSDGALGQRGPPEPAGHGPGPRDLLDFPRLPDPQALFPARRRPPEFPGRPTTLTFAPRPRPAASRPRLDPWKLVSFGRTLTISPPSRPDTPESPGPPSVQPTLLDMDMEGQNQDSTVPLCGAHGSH
T9 sequence (Q16512 whole entry): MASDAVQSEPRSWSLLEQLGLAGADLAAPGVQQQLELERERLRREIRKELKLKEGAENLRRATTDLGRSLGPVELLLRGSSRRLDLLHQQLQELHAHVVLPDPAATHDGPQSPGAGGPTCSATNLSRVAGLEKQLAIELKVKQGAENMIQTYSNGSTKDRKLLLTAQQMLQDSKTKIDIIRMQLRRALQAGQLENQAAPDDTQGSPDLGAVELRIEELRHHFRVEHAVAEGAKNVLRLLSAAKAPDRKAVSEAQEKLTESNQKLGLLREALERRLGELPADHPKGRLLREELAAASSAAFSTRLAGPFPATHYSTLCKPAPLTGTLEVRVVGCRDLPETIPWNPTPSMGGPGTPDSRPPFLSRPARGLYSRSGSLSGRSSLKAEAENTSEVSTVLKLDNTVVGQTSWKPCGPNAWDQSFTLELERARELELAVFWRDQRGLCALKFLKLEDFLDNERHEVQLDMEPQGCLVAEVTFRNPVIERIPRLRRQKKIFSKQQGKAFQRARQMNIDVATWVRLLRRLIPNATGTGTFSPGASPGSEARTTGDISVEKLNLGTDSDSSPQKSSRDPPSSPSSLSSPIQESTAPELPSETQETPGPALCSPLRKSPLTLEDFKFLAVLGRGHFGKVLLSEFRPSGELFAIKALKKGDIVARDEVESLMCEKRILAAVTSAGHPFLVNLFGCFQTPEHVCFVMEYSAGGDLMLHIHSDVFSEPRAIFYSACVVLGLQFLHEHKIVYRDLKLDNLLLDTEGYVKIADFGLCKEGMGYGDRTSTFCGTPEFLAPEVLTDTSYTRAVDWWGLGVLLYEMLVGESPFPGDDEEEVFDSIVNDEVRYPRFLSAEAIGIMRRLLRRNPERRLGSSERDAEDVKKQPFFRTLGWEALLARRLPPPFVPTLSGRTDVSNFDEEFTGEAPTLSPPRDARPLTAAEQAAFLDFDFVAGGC
T10 sequence (Q8N5S9 whole entry): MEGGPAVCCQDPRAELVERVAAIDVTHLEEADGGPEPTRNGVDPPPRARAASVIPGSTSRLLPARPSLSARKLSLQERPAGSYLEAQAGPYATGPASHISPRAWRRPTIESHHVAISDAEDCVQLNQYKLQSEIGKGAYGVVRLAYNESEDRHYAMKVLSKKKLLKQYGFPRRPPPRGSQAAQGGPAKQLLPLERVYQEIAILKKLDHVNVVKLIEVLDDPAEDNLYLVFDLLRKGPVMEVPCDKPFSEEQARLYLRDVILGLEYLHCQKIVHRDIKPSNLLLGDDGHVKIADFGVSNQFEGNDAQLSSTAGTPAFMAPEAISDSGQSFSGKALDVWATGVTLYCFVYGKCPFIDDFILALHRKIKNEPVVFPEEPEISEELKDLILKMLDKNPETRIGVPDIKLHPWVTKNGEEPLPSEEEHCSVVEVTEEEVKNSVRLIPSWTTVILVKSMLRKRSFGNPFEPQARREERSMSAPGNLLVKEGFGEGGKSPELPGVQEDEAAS

SMILES	residual kinase activity ([1]; 0.3 µM)	residual kinase activity ([2]; 0.3 µM)	residual kinase activity ([3]; 0.3 µM)	residual kinase activity ([4]; 0.3 µM)	residual kinase activity ([5]; 0.3 µM)	residual kinase activity ([6]; 0.3 µM)	residual kinase activity ([7]; 0.3 µM)	residual kinase activity ([8]; 0.3 µM)	residual kinase activity ([9]; 0.3 µM)	residual kinase activity ([10]; 0.3 µM)	residual kinase activity ([11]; 0.3 µM)	residual kinase activity ([12]; 0.3 µM)	residual kinase activity ([13]; 0.3 µM)	residual kinase activity ([14]; 0.3 µM)	other results
COc1ccnc2[nH]cc(-c3cc(N)nc(N)c3)c12 [meriolin 16]	17 % of control	8 % of control	101 % of control	100 % of control	76 % of control	60 % of control	90 % of control	40 % of control	35 % of control	95 % of control	91 % of control	1 % of control	76 % of control	101 % of control	residual kinase activity ([1]; 0.03 µM): 36 % of control; residual kinase activity ([2]; 0.03 µM): 49 % of control; residual kinase activity ([3]; 0.03 µM): 121 % of control; residual kinase activity ([4]; 0.03 µM): 101 % of control; residual kinase activity ([5]; 0.03 µM): 88 % of control; residual kinase activity ([6]; 0.03 µM): 89 % of control; residual kinase activity ([7]; 0.03 µM): 97 % of control; residual kinase activity ([8]; 0.03 µM): 83 % of control; residual kinase activity ([9]; 0.03 µM): 84 % of control; residual kinase activity ([10]; 0.03 µM): 97 % of control; residual kinase activity ([11]; 0.03 µM): 103 % of control; residual kinase activity ([12]; 0.03 µM): 16 % of control; residual kinase activity ([13]; 0.03 µM): 99 % of control; residual kinase activity ([14]; 0.03 µM): 110 % of control
c1ccc(CNc2cc(-c3c[nH]c4ncccc34)ccn2)cc1 [meriolin 36]	19 % of control	55 % of control	90 % of control	107 % of control	54 % of control	25 % of control	89 % of control	9 % of control	17 % of control	51 % of control	56 % of control	0 % of control	50 % of control	114 % of control	residual kinase activity ([1]; 3 µM): 10 % of control; residual kinase activity ([2]; 3 µM): 17 % of control; residual kinase activity ([3]; 3 µM): 43 % of control; residual kinase activity ([4]; 3 µM): 98 % of control; residual kinase activity ([5]; 3 µM): 14 % of control; residual kinase activity ([6]; 3 µM): 8 % of control; residual kinase activity ([7]; 3 µM): 68 % of control; residual kinase activity ([8]; 3 µM): 1 % of control; residual kinase activity ([9]; 3 µM): 3 % of control; residual kinase activity ([10]; 3 µM): 18 % of control; residual kinase activity ([11]; 3 µM): 16 % of control; residual kinase activity ([12]; 3 µM): 1 % of control; residual kinase activity ([13]; 3 µM): 9 % of control; residual kinase activity ([14]; 3 µM): 96 % of control
